Patent publication US10221168B1, “Small-compound enhancers for functional O-mannosylation of alpha-dystroglycan, and uses thereof” (priority 2015, dated 2019)

Assays:
[1] = tested on: FOG of α-DG on the cell surfaces; experiment: Cell-based HTS/HCS assay, IIH6 antibody as probe (EC1.5); settings: concentration of the compound required to enhance the FOG of α-DG by 50% over the controls; cell-based assays in vitro
Description: (§1) Protein glycosylation is a multiple-step process that requires a large number of proteins in the secretory pathway of the cells. Thus we chose cell-based assay because our goal is to identify enhancer the FOG of α-DG on the cell surfaces. The assay system is HTS/HCS friendly and can adapt to various cell lines including myotubes as well as various readout methods including AlphaScreen, fluorescence density and HCS/fluorescence imaging. The standard operation protocol (SOP) for adhesion cells is described below and the FIG. 1 illustrates the assay process using myoblasts as the controls and screening cells and the IIH6 antibody as the probe. Other adhesion cells such CHO (Chinese hamster ovary) cell line can be implemented into this assay by simply removing the differentiation step.
Cell cultures: All cells are cultured at 37° C., 5% CO2, in appropriate media (F-12 for epithelial cells and DMEM for myoblasts) supplement with 10-20% fetal calf serum (FCS) and 1% antibiotics. […] The cells will be detached with trypsin EDTA and suspended in the cell culture media. The cells will be counted and seeded into the multiple-well plates as desired. Myotubes formation: When the myoblasts reach confluence, change the growth media to differential media (DEME with 2% horse serum) and incubate for 4-5 days.
The cells were fixed, permeablized, and then blocked with 10% BSA in PBS for 1 hour. […] After washing the cells with PBS for 2 times, the DAPI was used to stain the cells for 15 mins and wash 3 times with PBS. The images were captured with an inverted Olympus fluorescent microscope. For small compound localization experiment, the cells are incubated with the biotin conjugated compounds and then the cells were washed and incubated with streptavidin-Dye and then images will be captured to see the location of the compound-target-protein.
H, EC1.5<5 μM; M, EC1.5-20 μM; L, EC1.5 20-50 μM; VL, EC1.5>50 μM.

[2] = tested on: functional O-mannosylation of α-DG on cell surfaces (CHO, C2C12, HSMB, FKRPD cells); experiment: Immuno-fluorescent staining with IIH6 antibody after compound treatment (FIG. 1); type: cell-based, Chinese hamster, mouse, human; settings: FKRPD cells in 96 well-plates, series of concentrations, 48 hours
Method: The Chinese hamster ovary (CHO), mouse myoblasts (C2C12), normal human myoblasts (HSMB), human FKRP deficient myoblasts (FKRPD) were grown in 96 well-plates and treated with the compound at a series concentrations for 48 hours. The cells were examined with immuno-fluorescent staining using the IIH6 antibody that recognize the FOG of α-DG as the primary antibody followed by an appropriate secondary antibody conjugated with fluorophore. The detailed protocol is described in experiment section below.
as §1
The cells were fixed, permeablized, and then blocked with 10% BSA in PBS for 1 hour. […]

Compound	Activity (EC1.5) [1]	enhancement of the functional O-mannosylation of α-DG on cell surfaces [2]
CCC(c1nnnn1Cc1cccs1)N1CCN(c2nc3cc(N)cc(F)c3s2)CC1 (stereo not drawn) [Compound 46, 5-amino-7-fluoro-2-(4-(1-(1-(thiophen-2-ylmethyl)-1H-tetrazol-5-yl)propyl)piperazin-1-yl)benzothiazole]	H (EC1.5<5 μM)	dose-dependent enhancement
CCC(c1ccc(-c2nc3ccccc3s2)cc1)c1nnnn1Cc1cccs1 (stereo not drawn) [Compound 40, 2-(4-(1-(1-(thiophen-2-ylmethyl)-1H-tetrazol-5-yl)propyl)phenyl)benzothiazole]	M (EC1.5-20 μM)	–
CCC(c1nnnn1Cc1cccs1)N1CCN(c2nc3ccc(F)cc3s2)CC1 (stereo not drawn) [Compound 13, 6-fluoro-2-(4-(1-(1-(thiophen-2-ylmethyl)-1H-tetrazol-5-yl)propyl)piperazin-1-yl)benzothiazole]	L (EC1.5 20-50 μM)	–
CCC(c1nnnn1Cc1cccs1)N1CCN(c2nc3ccc(Cl)cc3s2)CC1 (stereo not drawn) [Compound 15, 6-chloro-2-(4-(1-(1-(thiophen-2-ylmethyl)-1H-tetrazol-5-yl)propyl)piperazin-1-yl)benzothiazole]	M (EC1.5-20 μM)	–
c1csc(Cn2nnnc2CN2CCN(c3nc4ccccc4s3)CC2)c1 [Compound 2, 2-(4-((1-(thiophen-2-ylmethyl)-1H-tetrazol-5-yl)methyl)piperazin-1-yl)benzothiazole]	M (EC1.5-20 μM)	–
CCC(c1nnnn1Cc1cccs1)N1CCN(c2nc3c(F)cccc3s2)CC1 (stereo not drawn) [Compound 30, 4-fluoro-2-(4-(1-(1-(thiophen-2-ylmethyl)-1H-tetrazol-5-yl)propyl)piperazin-1-yl)benzothiazole]	H (EC1.5<5 μM)	–
CCC(c1nnnn1Cc1ccco1)N1CCN(c2nc3ccccc3s2)CC1 (stereo not drawn) [Compound 5, 2-(4-(1-(1-(furan-2-ylmethyl)-1H-tetrazol-5-yl)propyl)piperazin-1-yl)benzothiazole]	M (EC1.5-20 μM)	–
CCC(c1nnnn1Cc1cccs1)N1CCN(c2nc3ccc(C(=O)O)cc3s2)CC1 (stereo not drawn) [Compound 32, 2-(4-(1-(1-(thiophen-2-ylmethyl)-1H-tetrazol-5-yl)propyl)piperazin-1-yl)benzothiazole-6-carboxylic acid]	L (EC1.5 20-50 μM)	–
CCC(c1nnnn1Cc1cccs1)N1CCN(c2nc3cccc(C(=O)OC)c3s2)CC1 (stereo not drawn) [Compound 35, Methyl 2-(4-(1-(1-(thiophen-2-ylmethyl)-1H-tetrazol-5-yl)propyl)piperazin-1-yl)benzothiazole-7-carboxylate]	L (EC1.5 20-50 μM)	–
CCC(c1nnnn1Cc1cccs1)N1CCN(c2nc3ccccc3[nH]2)CC1 (stereo not drawn) [Compound 9, 2-(4-(1-(1-(thiophen-2-ylmethyl)-1H-tetrazol-5-yl)propyl)piperazin-1-yl)-1H-benzimidazole]	L (EC1.5 20-50 μM)	–
CCC(c1nnnn1Cc1cccs1)N1CCN(c2nc3ccc(NC(=O)c4ccccc4Cl)cc3s2)CC1 (stereo not drawn) [Compound 18, 2-chloro-N-(2-(4-(1-(1-(thiophen-2-ylmethyl)-1H-tetrazol-5-yl)propyl)piperazin-1-yl)benzothiazol-6-yl)benzamide]	VL (EC1.5>50 μM)	–
CCC(c1nnnn1Cc1cccs1)N1CCN(c2nc3c([N+](=O)[O-])cccc3s2)CC1 (stereo not drawn) [Compound 22, 4-nitro-2-(4-(1-(1-(thiophen-2-ylmethyl)-1H-tetrazol-5-yl)propyl)piperazin-1-yl)benzothiazole]	L (EC1.5 20-50 μM)	–
CCC(c1nnnn1Cc1cccs1)N1CCN(c2nc3c(F)cc(F)cc3s2)CC1 (stereo not drawn) [Compound 44, 4,6-difluoro-2-(4-(1-(1-(thiophen-2-ylmethyl)-1H-tetrazol-5-yl)propyl)piperazin-1-yl)benzothiazole]	M (EC1.5-20 μM)	–
CCC(c1nnnn1Cc1cccs1)C1CCN(c2nc3cc(N)cc(F)c3s2)C1 (stereo not drawn) [Compound 69, 5-amino-7-fluoro-2-(4-(1-(1-(thiophen-2-ylmethyl)-1H-tetrazol-5-yl)propyl)pyrrolidine-1-yl)benzothiazole]	H (EC1.5<5 μM)	–
CCC(c1nnnn1Cc1cccs1)C1CCCC(c2nc3cc(N)cc(F)c3s2)CC1 (stereo not drawn) [Compound 68, 5-amino-7-fluoro-2-(4-(1-(1-(thiophen-2-ylmethyl)-1H-tetrazol-5-yl)propyl)cycloheptyl)benzothiazole]	H (EC1.5<5 μM)	–
CCC(c1nnnn1CCc1cccs1)N1CCN(c2nc3cc(N)cc(F)c3s2)CC1 (stereo not drawn) [Compound 55, 5-amino-7-fluoro-2-(4-(1-(1-(thiophen-2-ylethyl)-1H-tetrazol-5-yl)propyl)piperazin-1-yl)benzothiazole]	H (EC1.5<5 μM)	–
CCC(c1nnnn1Cc1cccs1)N1CCN(c2nc3ccc(NC(=O)c4ccccc4C)cc3s2)CC1 (stereo not drawn) [Compound 19, 2-methyl-N-(2-(4-(1-(1-(thiophen-2-ylmethyl)-1H-tetrazol-5-yl)propyl)piperazin-1-yl)benzothiazol-6-yl)benzamide]	VL (EC1.5>50 μM)	–
CCC(c1nnnn1Cc1cccs1)N1CCN(c2nc3cc([N+](=O)[O-])cc(F)c3s2)CC1 (stereo not drawn) [Compound 45, 7-fluoro-5-nitro-2-(4-(1-(1-(thiophen-2-ylmethyl)-1H-tetrazol-5-yl)propyl)piperazin-1-yl)benzothiazole]	L (EC1.5 20-50 μM)	–
CCC(c1nnnn1CCc1cccs1)N1CCN(c2nc3cc(N)cc(F)c3s2)C([N+](=O)[O-])C1 (stereo not drawn) [Compound 67, 5-amino-7-fluoro-2-(4-(1-(1-(thiophen-2-ylethyl)-1H.tetrazol-5-yl)propyl)-2-nitro-piperazin-1-yl)benzothiazole]	H (EC1.5<5 μM)	–
CCC(c1nnnn1CCc1cccs1)N1CCN(c2nc3cc(N)cc(F)c3s2)CC1[N+](=O)[O-] (stereo not drawn) [Compound 65, 5-amino-7-fluoro-2-(4-(1-(1-(thiophen-2-ylethyl)-1H-tetrazol-5-yl)propyl)-5-nitro-piperazin-1-yl)benzothiazole]	H (EC1.5<5 μM)	–
